Measurements reported in patent publication US20220362279A1, “USE OF OLIGONUCLEOTIDES FOR THE TREATMENT AND PREVENTION OF PAIN” (CONSEJO NACIONAL DE INVESTIGACIONES CIENTÍFICAS Y TÉCNICAS, priority 2018, published 2022).
Entries after “also recorded” stand apart in the source; their conditions may differ. Strand notation (5' to 3'): a small letter for the sugar, then the base; units joined by * are phosphorothioate-linked, units joined directly phosphodiester-linked; [ ] holds rarer units or linkages, { } end groups; capitals alone tell only the bases. d = 2'-deoxy (DNA)

Tests used:
Format in all cases: in vivo, rat
[1] = test system: rats with hind paw inflammation (CFA rats); assay: Hind paw dorsoventral thickness in rats with CFA-induced hind paw inflammation; conditions: preventive IMT504 before CFA; whole tested period
Experimental: (§1) In fifty-two rats anesthetized with Isoflurane (5% induction, 2.5% maintenance, 0.8 L/min O2 flow rate; Piramal Healthcare, UK), the right hind paw was injected intra-dermally with 100 μl of CFA (1:1, dissolved in normal saline; Sigma-Aldrich, Mo., USA), using a 1 ml syringe with a 25G needle attached. The animals (from now on, called CFA rats) were left to recover from anesthesia in a warm and quiet environment before relocating them in their corresponding cages.
In one set of experiments, called “preventive treatment”, four rats received a daily dose of 20 mg/kg IMT504 for five consecutive days and four weeks later one dose of 6 mg/kg (group a); a second group of four rats received one dose of 6mg/kg of IMT504 (group b) (FIG. 1A). Three days after the single injection of 6 mg/kg IMT504, all eight rats received intra-plantar CFA, after which they were tested for mechanical and cold allodynia during 21 days. At day 28, group b received an additional administration of IMT504 at a dose of 3 mg/kg and was evaluated until day 35. […]
Eight rats received a dose of 6 mg/kg IMT504 (FIGS. 2 and 3). […] On day 28 (FIG. 1) or 28 (FIG. 2), rats receiving preventive IMT504 were administered additional IMT504 at a dose of 3 mg/kg (FIG. 1) or 2 mg/kg (FIG. 2), and assessed until days 21-35.

[2] = test system: rats with hind paw inflammation (CFA rats); assay: Mechanical allodynia (von Frey, 50% withdrawal threshold) in rats with CFA-induced hind paw inflammation
Experimental: as §1
In one set of experiments, called “preventive treatment”, four rats received a daily dose of 20 mg/kg IMT504 for five consecutive days and four weeks later one dose of 6 mg/kg (group a); a second group of four rats received one dose of 6mg/kg of IMT504 (group b) (FIG. 1A). Three days after the single injection of 6 mg/kg IMT504, all eight rats received intra-plantar CFA, after which they were tested for mechanical and cold allodynia during 21 days. At day 28, group b received an additional administration of IMT504 at a dose of 3 mg/kg and was evaluated until day 35.
In a second set of experiments, groups of rats were allocated to early or late treatment protocols (ET and LT, respectively), using a daily dose of 20 mg/kg IMT504 for five consecutive days (FIG. 2A). The ET protocol (n=5) was performed immediately after the intradermal injection of CFA in the hind paw; the LT protocol (n=5) was initiated seven days after the induction of hind paw inflammation (FIG. 2A). In all cases, animals where tested for pain-like behavior during four weeks after the induction of hind paw inflammation (days 1, 3, 7; weeks 2, 3 and 4).
In a third set of experiments, different concentrations and dosages of IMT504 were administered subcutaneously using the LT protocol (FIG. 3A). Rats were separated in three groups (n=5 per group) and treated as follows: i) a daily dose of 0.2 mg/kg of IMT504 for five consecutive days, ii) a daily dose of 2 mg/kg of IMT504 for five consecutive days, and iii) a daily dose of 2 mg/kg of IMT504 for three consecutive days. All these groups were tested for pain-like behavior up to seven weeks after induction of the hind paw inflammation.
Naïve (uninjured and untreated; n=16), CFA injured untreated (n=10), and vehicle-treated CFA (n=9) or SNI rats (n=10) were used as controls. Eight naïve rats remained untreated, four were vehicle-treated, and four received a daily dose of 20 mg/kg IMT504 for five consecutive days. Untreated CFA rats received an intradermal hind paw injection of CFA and no further treatment. Vehicle-treated CFA rats received five daily subcutaneous injections of saline (200 μl), starting seven days after injury. Vehicle-treated SNI rats received one single dose of saline (200 ul), starting seven days after injury.
For mechanical allodynia assessment, a set of von Frey filaments (Stoelting, Ill., USA) and the modified up-down method of Dixon were used, as described by Chaplan et al. (Chaplan S R, et, al., (1994) J. Neurosci Methods 53: 55-632) to establish the 50% withdrawal threshold. A withdrawal threshold of 6 g or less was considered an allodynic response.
as §1, with “seventeen” for “fifty-two”, “Scott-Cassara, Argentina),” for “Piramal Healthcare, UK),”, “MO,” for “Mo.,”, “needle.” for “needle attached.”, “(called” for “(from now on, called”, “relocating” for “relocating them”
Eight rats received a dose of 6 mg/kg IMT504 (FIGS. 2 and 3). Three days after the single injection of 6 mg/kg IMT504, all rats received intra-plantar complete Freund's Adjuvant (CFA), after which they were tested for mechanical and cold allodynia during 21-35 days. On day 28 (FIG. 1) or 28 (FIG. 2), rats receiving preventive IMT504 were administered additional IMT504 at a dose of 3 mg/kg (FIG. 1) or 2 mg/kg (FIG. 2), and assessed until days 21-35. […]

rats with SNI = assay: Mechanical allodynia in rats with spared nerve injury (SNI); conditions: single dose of 6 mg/kg seven days after SNI, s.c.
Description: In twenty-six rats anesthetized with Isoflurane (5% induction, 2.5% maintenance, 0.8 L/min O2 flow rate; Piramal Healthcare, UK), the right sciatic nerve and its three distal branches were exposed by blunt dissection, and the tibial and common peronneal branches completely sectioned and ligated to prevent regeneration. The third branch, the sural nerve, was left intact. The animals received one single injection of ketoprofen for post-surgical pain control and were left to recover from anesthesia in a warm and quiet environment before relocating them in their corresponding cages.
Rats were administered subcutaneously using the LT protocol (FIG. 4A) and a single dose of 6 mg/kg of IMT504. This was followed by pain-like behavior testing for up to six weeks after SNI.
Naïve (uninjured and untreated; n=16), CFA injured untreated (n=10), and vehicle-treated CFA (n=9) or SNI rats (n=10) were used as controls. Eight naïve rats remained untreated, four were vehicle-treated, and four received a daily dose of 20 mg/kg IMT504 for five consecutive days. Untreated CFA rats received an intradermal hind paw injection of CFA and no further treatment. Vehicle-treated CFA rats received five daily subcutaneous injections of saline (200 μl), starting seven days after injury. Vehicle-treated SNI rats received one single dose of saline (200 ul), starting seven days after injury. […]

[3] = 6 mg/kg 3 days before CFA (FIG. 6, FIG. 8)

Substance: IMT504: synthetic phosphorothioate oligodeoxynucleotide with sequence 5′-TCATCATTTTGTCATTTTGTCATT-3′ (SEQ ID No 1) (DNA dT*dC*dA*dT*dC*dA*dT*dT*dT*dT*dG*dT*dC*dA*dT*dT*dT*dT*dG*dT*dC*dA*dT*dT)
- effect on hind paw inflammation (dorsoventral paw thickness) [1]: does not prevent occurrence of inflammation; also recorded: did not seem to alter the natural course of hind paw inflammation; also recorded: without altering the inflammatory state of the affected hind paw
- period after induction of inflammation during which IMT504 prevents mechanical allodynia [2, 3]: 7 days
- time of reaching allodynic levels comparable to vehicle-treated rats [2, 3]: 14 days after injury
- day by which mechanical withdrawal thresholds are fully comparable to injured untreated or vehicle-treated rats ([2]; 6 mg/kg 3 days before CFA, both groups (FIG. 10A, 11A)): 21 days
- lack of mechanical allodynia until ([2]; 6 mg/kg 3 days before CFA, group with booster on day 21 (FIG. 11A)): 7 days after injury
- lack of mechanical allodynia until ([2]; 6 mg/kg 3 days before CFA, group with booster on day 28 (FIG. 10A)): 3 days after injury
- effect of a booster dose of 2 mg/kg IMT504 21 days after injury on mechanical allodynia ([2]; 6 mg/kg 3 days before CFA, booster 2 mg/kg day 21 (FIG. 11A)): completely restored the anti-allodynic effect
- effect of an additional dose of 3 mg/kg IMT504 28 days after injury on mechanical allodynia ([2]; 6 mg/kg 3 days before CFA, booster 3 mg/kg day 28, observed one day after re-administration): quickly reverted; also recorded: complete reduction in mechanical and cold allodynia; also recorded: full recovery of basal withdrawal thresholds; also recorded: completely restored the anti-allodynic effect
- recovery of basal mechanical withdrawal thresholds, ET protocol ([2]; 20 mg/kg daily x5, started immediately after CFA): reaching basal levels seven days after treatment initiation; also recorded: reaching basal thresholds seven days after injury and onwards
- recovery of basal mechanical withdrawal thresholds, LT protocol ([2]; 20 mg/kg daily x5, started seven days after CFA): fully achieved seven days after initiation of the treatment; also recorded: recovery of basal mechanical withdrawal thresholds starting one week after treatment (two weeks after injury)
- withdrawal thresholds of contralateral hind paws ([2]; IMT504-treated CFA rats, data not shown): remained normal; also recorded: normal basal values
- start of progressive recovery towards basal mechanical withdrawal thresholds ([2]; LT protocols (0.2 or 2 mg/kg, three or five daily doses from day 7 after CFA), s.c.): 10 day after injury
- recovery of mechanical withdrawal threshold ([2]; LT, 0.2 mg/kg daily x5, s.c., 0.2 mg/kg): slower, incomplete recovery, never reaching basal withdrawal thresholds; also recorded: not reaching the basal level
- difference to vehicle-treated CFA rats towards the end of the assay ([2]; LT, 0.2 mg/kg daily x5, p>0.05): no significant differences with the vehicle-treated CFA rats
- reaching basal ipsilateral withdrawal thresholds, counted from initiation of treatment ([2]; LT, three or five daily doses of 2 mg/kg, s.c.): reaching basal ipsilateral withdrawal thresholds at day five after initiation of the treatment and onwards
- persistence of basal withdrawal thresholds ([2]; LT, three or five daily doses of 2 mg/kg, s.c., 2 mg/kg): maintained basal withdrawal thresholds throughout the whole assay period; also recorded: maintaining such a condition throughout the entire assay (seven weeks)
- time at which mechanical withdrawal thresholds reach allodynic levels ([2]; preventive IMT504 (20 mg/kg x5 + 6 mg/kg, or 6 mg/kg only) three days before CFA, both groups): 14 days after injury
- mechanical allodynia twenty-one days after injury ([2]; preventive IMT504, both groups, comparable to untreated CFA-rats): all animals reached basal allodynic levels
- lack / prevention of mechanical allodynia after CFA-induced inflammation ([2]; preventive IMT504: 20 mg/kg daily x5 plus 6 mg/kg four weeks later, or 6 mg/kg only, CFA three days after the 6 mg/kg dose, both groups): prevention of mechanical allodynia; also recorded: lack of mechanical allodynia during the first three days
- time from which basal withdrawal thresholds are recovered ([2]; single dose of 2 mg/kg, one week after CFA): 21 days after injury
- recovery of basal withdrawal thresholds ([2]; single dose of 2 mg/kg, one week after CFA, 2 mg/kg): slower, but finally complete, recovery of basal withdrawal thresholds; also recorded: slower, incomplete recovery, never reaching basal withdrawal thresholds
- full recovery of mechanical withdrawal thresholds (rats with SNI): fully recovered from week three and onwards
- time from which mechanical withdrawal thresholds are almost at basal levels (rats with SNI): 12 days after injury
